Earlier results in patent US9353081B2, “Bicyclic dihydroquinoline-2-one derivatives” (Hoffmann-La Roche Inc., priority 2011, dated 2016).

Legend:
[1] = system: rat model of chronic kidney disease; details: cited from earlier work; for plasma aldosterone: FAD286: 4 weeks of treatment, spironolactone: 4 and 8 weeks of treatment; for angiotensin II and salt-stimulated PAI-1 mRNA expression in the aorta and the heart / cardiac and aortic medial hypertrophy / renal effects of angiotensin II and high salt (albuminuria, azotemia, renovascular hypertrophy, glomerular injury, PAI-1 and osteopontin mRNA, tubulointerstitial fibrosis): rat CKD model
[2] = system: rats with experimental heart failure; details: cited from earlier work
[3] = system: patients with primary aldosteronism; details: cited from earlier work

Compound	plasma aldosterone [1]	angiotensin II and salt-stimulated PAI-1 mRNA expression in the aorta and the heart [1]	cardiac and aortic medial hypertrophy [1]	renal effects of angiotensin II and high salt (albuminuria, azotemia, renovascular hypertrophy, glomerular injury, PAI-1 and osteopontin mRNA, tubulointerstitial fibrosis) [1]	blood pressure and cardiovascular function and structure [2]	kidney function and morphology [2]	blood pressure [3]	hypokalemia [3]	selectivity (effects on the glucocorticoid axis, cortisol synthesis) [3]	circulating aldosterone levels ([3]; oral)
N#Cc1ccc(C2CCCc3cncn32)cc1 (centres unmarked) [FAD286]	reduced	not	attenuated	prevented these renal effects	improved	improve	–	–	–	–
CC(=O)S[C@@H]1CC2=CC(=O)CC[C@]2(C)[C@H]2CC[C@@]3(C)[C@@H](CC[C@@]34CCC(=O)O4)[C@H]12 [spironolactone]	increased	enhanced	attenuated	prevented these renal effects	–	–	–	–	–	–
N#Cc1ccc([C@H]2CCc3cncn32)c(F)c1 [LCI699]	–	–	–	–	–	–	mildly decreased	corrected	poor selectivity	significantly lower
